Patent publication US7462345B2, “Radionuclide labeling of vitamin B12 and coenzymes thereof” (Mayo Foundation for Medical Education and Research, priority 1995, dated 2008)

Columns and labels:
Transcobalamins (TC) = test: modified Unsaturated vitamin B12 Binding Capacity (UBBC) assay; parameters: species or system human; settings: for averaged percent binding to the transcobalamin proteins: average of five patients; for UBBC supernatant counts: NSB = counts <100
Protocol: (§1) Under dim light, 1000 μg of the non-labeled methyl-, adenosyl-, and cyanocobalamin-b-(4-aminobutyl)amide-DTPA, as well as 1000 μg of cyanocobalamin and DTPA (Sigma, St. Louis, Mo. 63178), were separately dissolved in 10 ml of normal saline at room temperature. Each of the five 1000 μg/10 ml samples were stored in sealed, aluminum-Tapped 10 ml vials to prevent exposure to light. No buffers were added to the solutions. The pH of the solutions, measured by a Beckman 40 pH meter (Beckman Instruments, Fullerton, Calif.): Cyanocobalamin=5.75, DTPA=3.78; cyano, methyl and adenosylcobalamin-DTPA analogues were 5.75, 6.10, and 6.19, respectively. To assess in vitro binding to Intrinsic Factor (IF) and Transcobalamins (TC), the intrinsic factor blocking antibody (IFBA) and Unsaturated vitamin B12 Binding Capacity (UBBC) assays were performed with serum randomly obtained from five patients being evaluated for pernicious anemia at the Mayo Clinic. The IFBA and UBBC assays were first performed for clinical purposes as previously described by V. F. Fairbanks et al., Mayo Clin. Proc., 58, 203 (1983); Intrinsic Factor Blocking Antibody [^57Co] Radioassay-Package insert, Diagnostic Products Corp.; D. Grossowicz et al., Proc. Exp. Biol. 109, 604 (1962) and C. Gottlieb et al., Blood 25, 6 (1965). Next, the serum from the same five patients underwent modified IFBA and UBBC assays. Specifically, 1 μl of the five previously described solutions were separately incubated with purified IF or serum, to potentially saturate all IF and TC binding sites. After incubation for 20 minutes at room temperature and for another 20 minutes at 4° C., 500 μl of the stock (1000 μg/l) Cobalt-57-cyanocobalamin (Mallinckrodt Medical. Inc., St. Louis, Mo. 63134) solution was added and the usual IFBA and UBBC protocols were then followed. All supernatant activity was counted for four minutes on a gamma counter (Micromedix 10/20, Huntsville, Ala. 35805).

Intrinsic Factor (IF) = test: modified intrinsic factor blocking antibody (IFBA) assay; format: binding; settings: for averaged percent binding to IF: average of five patients, estimated from counts vs Clinical run
Protocol: as §1

[1] = pH of 1000 μg/10 ml normal saline solutions; format: physicochemical; settings: 1000 μg in 10 ml normal saline, no buffers, room temperature
Protocol: Under dim light, 1000 μg of the non-labeled methyl-, adenosyl-, and cyanocobalamin-b-(4-aminobutyl)amide-DTPA, as well as 1000 μg of cyanocobalamin and DTPA (Sigma, St. Louis, Mo. 63178), were separately dissolved in 10 ml of normal saline at room temperature. Each of the five 1000 μg/10 ml samples were stored in sealed, aluminum-Tapped 10 ml vials to prevent exposure to light. No buffers were added to the solutions. The pH of the solutions, measured by a Beckman 40 pH meter (Beckman Instruments, Fullerton, Calif.): Cyanocobalamin=5.75, DTPA=3.78; cyano, methyl and adenosylcobalamin-DTPA analogues were 5.75, 6.10, and 6.19, respectively.

[2] = serum PT 1, preincubated with 1 μl of 1000 μg/10 ml solution, then Co-57-cyanocobalamin, Clinical Run 741
[3] = PT 1, negative <1.11, positive (binding to IF) >1.43, indeterminate 1.11-1.43
[4] = PT 2, negative <1.11, positive >1.43
[5] = PT 3, negative <1.11, positive >1.43
[6] = PT 4, negative <1.11, positive >1.43
[7] = PT 5, negative <1.11, positive >1.43

| Compound | averaged percent binding to the transcobalamin proteins (Transcobalamins (TC)) | UBBC supernatant counts (Transcobalamins (TC); [2]) | UBBC supernatant counts (Transcobalamins (TC); serum PT 2, Clinical Run 632) | UBBC supernatant counts (Transcobalamins (TC); serum PT 3, Clinical Run 2097) | UBBC supernatant counts (Transcobalamins (TC); serum PT 4, Clinical Run 1378) | UBBC supernatant counts (Transcobalamins (TC); serum PT 5, Clinical Run 1682) | IFBA supernatant counts (Intrinsic Factor (IF); PT 1, Clinical Run 11942.5) | IFBA value (in parentheses) (Intrinsic Factor (IF); [3]) | IFBA supernatant counts (Intrinsic Factor (IF); PT 2, Clinical Run 11656) | IFBA value (in parentheses) (Intrinsic Factor (IF); [4]) | IFBA supernatant counts (Intrinsic Factor (IF); PT 3, Clinical Run 11780) | IFBA value (in parentheses) (Intrinsic Factor (IF); [5]) | IFBA supernatant counts (Intrinsic Factor (IF); PT 4, Clinical Run 11617) | IFBA value (in parentheses) (Intrinsic Factor (IF); [6]) | IFBA supernatant counts (Intrinsic Factor (IF); PT 5, Clinical Run 11653.5) | IFBA value (in parentheses) (Intrinsic Factor (IF); [7]) | averaged percent binding to IF (Intrinsic Factor (IF)) | pH of the solution [1] |
| --- | --- | --- | --- | --- | --- | --- | --- | --- | --- | --- | --- | --- | --- | --- | --- | --- | --- | --- |
| CC1=C2N=C(C=C3N=C(C(C)=C4[N-]C(C(CC(N)=O)C4(C)CCC(=O)NCC(C)OP(=O)([O-])OC4C(CO)OC(n5cnc6cc(C)c(C)cc65)C4O)C4(C)N=C1C(CCC(=O)NCCCCNC(=O)CN(CCN(CCN(CC(=O)O)CC(=O)O)CC(=O)O)CC(=O)O)C4(C)CC(N)=O)C(CCC(N)=O)C3(C)C)C(CCC(N)=O)C2(C)CC(N)=O.[CH2-]C1OC(n2cnc3c(N)ncnc32)C(O)C1O.[Co+3] (stereo not drawn) [ADB12DTPA, adenosylcobalamin-b-(4-aminobutyl)-amide-DTPA] | 90.4% | 54.6 counts | 62.6 counts | 590.3 counts | 126.9 counts | 163.9 counts | 6758.5 counts | (2.30) | 6841.5 counts | (1.74) | 6828.5 counts | (1.74) | 7046.5 counts | (1.64) | 7096.5 counts | (1.72) | 41.0% | 6.19 |
| CC1=C2N=C(C=C3N=C(C(C)=C4[N-]C(C(CC(N)=O)C4(C)CCC(=O)NCC(C)OP(=O)([O-])OC4C(CO)OC(n5cnc6cc(C)c(C)cc65)C4O)C4(C)N=C1C(CCC(=O)NCCCCNC(=O)CN(CCN(CCN(CC(=O)O)CC(=O)O)CC(=O)O)CC(=O)O)C4(C)CC(N)=O)C(CCC(N)=O)C3(C)C)C(CCC(N)=O)C2(C)CC(N)=O.[C-]#N.[Co+3] (stereo not drawn) [CNB12DTPA, cyanocobalamin-b-(4-aminobutyl)-amide-DTPA] | 66.4% | 222.6 counts | 216.9 counts | 713.3 counts | 433.2 counts | 643.2 counts | 5151 counts | (2.30) | 5133.5 counts | (2.31) | 5338.5 counts | (2.22) | 6002.5 counts | (1.98) | 5973.5 counts | (1.99) | 52.9% | 5.75 |
| CC1=C2N=C(C=C3N=C(C(C)=C4[N-]C(C(CC(N)=O)C4(C)CCC(=O)NCC(C)OP(=O)([O-])OC4C(CO)OC(n5cnc6cc(C)c(C)cc65)C4O)C4(C)N=C1C(CCC(=O)NCCCCNC(=O)CN(CCN(CCN(CC(=O)O)CC(=O)O)CC(=O)O)CC(=O)O)C4(C)CC(N)=O)C(CCC(N)=O)C3(C)C)C(CCC(N)=O)C2(C)CC(N)=O.[CH3-].[Co+3] (stereo not drawn) [MEB12DTPA, methylcobalamin-b-(4-aminobutyl)-amide-DTPA] | 94.0% | 17.1 counts | 26.8 counts | 278.9 counts | 60.9 counts | 91.1 counts | 4279 counts | (2.77) | 4082 counts | (2.92) | 4456.5 counts | (2.66) | 4414 counts | (2.69) | 4381.5 counts | (2.77) | 63.2% | 6.10 |
